{
  "source": "patent US20150209327A1",
  "about": "“METHODS FOR THE TREATMENT OF OBESITY USING APREMILAST” (Celgene Corporation, priority 2014, published 2015)",
  "key": {"[1]": {"test": "Psoriasis (PSOR) Phase 3 Data Pool: weight change", "format": "in vivo, human", "settings": "30 mg BID; for Weight % Change Category 0%, n (%) / Weight % Change Category <−20%, n (%) / Weight % Change Category >0% to ≦5%, n (%) / Weight % Change Category >5% to ≦10%, n (%) / Weight % Change Category >10% to ≦20%, n (%) / Weight % Change Category >20%, n (%) / Weight % Change Category ≧−5% to <0%, n (%) / Weight % Change Category ≧−10% to <−5%, n (%) / Weight % Change Category ≧−20% to <−10%, n (%): Subjects as Treated; for observed weight loss of greater than 10%, subjects n (%): subjects as treated", "excerpt": "Apremilast has shown benefit of weight loss in both Phase 2 and Phase 3 Psoriatic Arthritis (PSA) and Psoriasis (PSOR) trials."}, "[2]": {"system": "TNF-α production", "test": "Inhibition of TNF-α production in a mouse model", "format": "in vivo", "excerpt": "The test methods were as described in WO 03/080049; Muller et al., J. Med. Chem., 1996, 39:3238; and Muller et al., Bioorg. Med. Chem. Lett., 1999, 9:1625-30."}, "[3]": {"test": "Apremilast Data Pool: weight change", "format": "in vivo, human", "settings": "20 mg BID", "excerpt": "Similar results of weight loss were reported for the Apremilast Data Pool. A weight decrease was reported during the Placebo-controlled Period (24 weeks) in 3 (0.2%) subjects who received placebo and 26 (0.9%) subjects who received apremilast, including 8 (0.8%) subject in the APR 20 BID group, and 18 (1.1%) subjects in the APR 30 BID group.\nThe end-of-period value is the last postbaseline value (only through the Placebo-controlled Period for placebo-treated subjects) including data up to 28 days after the last dose of investigational product but excluding the observational follow-up visit.\nThe end-of-period value is the last postbaseline value (while subjects were receiving apremilast), including data up to 28 days after the last dose of apremilast but excluding the observational follow-up visit."}, "[4]": {"settings": "Apremilast-exposure Period, m = 1133"}, "[5]": {"settings": "End of Period (APR, apremilast exposure), Subjects as Initially Treated at Week 0"}, "[6]": {"settings": "End of Period (PBC), Subjects as Initially Treated at Week 0"}, "[7]": {"settings": "End of Period (apremilast exposure), Apremilast Subjects as Treated"}, "[8]": {"settings": "Week 52, Apremilast Subjects as Treated"}, "[9]": {"settings": "Week 78, Apremilast Subjects as Treated"}, "[10]": {"settings": "Apremilast-exposure Period, Apremilast Subjects as Treated, m = 1373"}, "[11]": {"settings": "Placebo-controlled Period, Subjects as Initially Treated at Week 0, m = 900"}},
  "note": "Several values for one entry are separate records, joined by “and”; a condition that tells them apart may be missing. Equal entries are not always repeated.",
  "data": [
    {"smiles": "CCOc1cc([C@@H](CS(C)(=O)=O)N2C(=O)c3cccc(NC(C)=O)c3C2=O)ccc1OC", "note": "[Apremilast, (+)-2-[1-(3-ethoxy-4-methoxyphenyl)-2-methylsulfonylethyl]-4-acetylaminoisoindoline-1,3-dione]", "values": [
      {"measurement": "weight decrease reported, subjects n (%)", "setting": "[1]", "value": "18 (1.5%) n (%)"},
      {"measurement": "Weight % Change Category 0%, n (%)", "setting": "[1]; [4]", "value": "72 (6.4) n (%)"},
      {"measurement": "Weight % Change Category <−20%, n (%)", "setting": "[1]; [4]", "value": "9 (0.8) n (%)"},
      {"measurement": "Weight % Change Category >0% to ≦5%, n (%)", "setting": "[1]; [4]", "value": "283 (25.0) n (%)"},
      {"measurement": "Weight % Change Category >5% to ≦10%, n (%)", "setting": "[1]; [4]", "value": "61 (5.4) n (%)"},
      {"measurement": "Weight % Change Category >10% to ≦20%, n (%)", "setting": "[1]; [4]", "value": "19 (1.7) n (%)"},
      {"measurement": "Weight % Change Category >20%, n (%)", "setting": "[1]; [4]", "value": "1 (0.1) n (%)"},
      {"measurement": "Weight % Change Category ≧−5% to <0%, n (%)", "setting": "[1]; [4]", "value": "470 (41.5) n (%)"},
      {"measurement": "Weight % Change Category ≧−10% to <−5%, n (%)", "setting": "[1]; [4]", "value": "162 (14.3) n (%)"},
      {"measurement": "Weight % Change Category ≧−20% to <−10%, n (%)", "setting": "[1]; [4]", "value": "56 (4.9) n (%)"},
      {"measurement": "observed weight loss of greater than 10%, subjects n (%)", "setting": "[1]; Apremilast-exposure Period", "value": "65(5.7%) n (%)"},
      {"measurement": "Change From Baseline (kg) Median (Min, Max)", "setting": "[1]; [5]", "value": "−1.00 (−39.4, 22.3) kg"},
      {"measurement": "Weight, kg End of Period Mean ± SD", "setting": "[1]; [5]", "value": "91.05 ± 21.694", "unit": "kg"},
      {"measurement": "Change From Baseline (kg) Mean ± SD", "setting": "[1]; End of Period (APR, apremilast exposure), Subjects as Initially Treated at Week 0, listed as APR", "value": "-1.67 kg and -1.67 ± 5.437 kg"},
      {"measurement": "Change From Baseline (kg) Median (Min, Max)", "setting": "[1]; [6]", "value": "−1.00 (−34.9, 28.0) kg"},
      {"measurement": "Weight, kg End of Period Mean ± SD", "setting": "[1]; [6]", "value": "91.35 ± 21.673", "unit": "kg"},
      {"measurement": "Change From Baseline (kg) Mean ± SD", "setting": "[1]; End of Period (PBC), Subjects as Initially Treated at Week 0, listed as APR", "value": "-1.45 kg and -1.45 ± 3.891 kg"},
      {"measurement": "Change From Baseline (kg) Mean ± SD", "setting": "[1]; [7]", "value": "-1.76 ± 5.344", "unit": "kg"},
      {"measurement": "Change From Baseline (kg) Median (Min, Max)", "setting": "[1]; [7]", "value": "−1.10 (−39.4, 22.3) kg"},
      {"measurement": "Weight, kg Time Point Mean ± SD", "setting": "[1]; [7]", "value": "90.72 ± 21.669", "unit": "kg"},
      {"measurement": "Change From Baseline (kg) Median (Min, Max)", "setting": "[1]; [8]", "value": "−1.40 (−39.0, 15.6) kg"},
      {"measurement": "Weight, kg Time Point Mean ± SD", "setting": "[1]; [8]", "value": "90.98 ± 22.291", "unit": "kg"},
      {"measurement": "Change From Baseline (kg) Mean ± SD", "setting": "[1]; Week 52, Apremilast Subjects as Treated, listed as APR", "value": "-1.99 kg and -1.99 ± 5.640 kg"},
      {"measurement": "Change From Baseline (kg) Median (Min, Max)", "setting": "[1]; [9]", "value": "−2.30 (−28.0, 14.9) kg"},
      {"measurement": "Weight, kg Time Point Mean ± SD", "setting": "[1]; [9]", "value": "89.72 ± 22.231", "unit": "kg"},
      {"measurement": "Change From Baseline (kg) Mean ± SD", "setting": "[1]; Week 78, Apremilast Subjects as Treated, listed as APR", "value": "-2.72 kg and -2.72 ± 5.792 kg"},
      {"measurement": "percentage of subjects with weight change of >−10% to <−5%", "setting": "[1]; Weeks 0-16", "value": 11.7, "unit": "%"},
      {"measurement": "Weight % Change Category 0%, n (%)", "setting": "[1]; Weeks 0-16, m = 1127", "value": "108 (9.6) n (%)"},
      {"measurement": "Weight % Change Category <−20%, n (%)", "setting": "[1]; Weeks 0-16, m = 1127", "value": "2 (0.2) n (%)"},
      {"measurement": "Weight % Change Category >0% to ≦5%, n (%)", "setting": "[1]; Weeks 0-16, m = 1127", "value": "277 (24.6) n (%)"},
      {"measurement": "Weight % Change Category >5% to ≦10%, n (%)", "setting": "[1]; Weeks 0-16, m = 1127", "value": "24 (2.1) n (%)"},
      {"measurement": "Weight % Change Category >10% to ≦20%, n (%)", "setting": "[1]; Weeks 0-16, m = 1127", "value": "6 (0.5) n (%)"},
      {"measurement": "Weight % Change Category >20%, n (%)", "setting": "[1]; Weeks 0-16, m = 1127", "value": "1 (0.1) n (%)"},
      {"measurement": "Weight % Change Category ≧−5% to <0%, n (%)", "setting": "[1]; Weeks 0-16, m = 1127", "value": "557 (49.4) n (%)"},
      {"measurement": "Weight % Change Category ≧−10% to <−5%, n (%)", "setting": "[1]; Weeks 0-16, m = 1127", "value": "132 (11.7) n (%)"},
      {"measurement": "Weight % Change Category ≧−20% to <−10%, n (%)", "setting": "[1]; Weeks 0-16, m = 1127", "value": "20 (1.8) n (%)"},
      {"measurement": "observed weight loss of greater than 10%, subjects n (%)", "setting": "[1]; Weeks 0 to 16", "value": "22 (2.0%) n (%)"},
      {"measurement": "body weight of the majority of subjects", "setting": "[1]; regardless of duration of exposure", "value": "maintained their body weight within 0% and 5% of baseline"},
      {"measurement": "EC50, inhibition of TNF-α production in a mouse model", "setting": "[2]", "value": 0.05, "unit": "mg/kg"},
      {"measurement": "observed weight loss of greater than 10%, % subjects", "setting": "[3]; Apremilast-exposure Period", "value": 4.0, "unit": "%"},
      {"measurement": "weight decrease reported, subjects n (%)", "setting": "[3]; Apremilast-exposure Period", "value": "17 (1.2%) n (%)"},
      {"measurement": "Weight % Change Category 0%, n (%)", "setting": "[3]; [10]", "value": "125 (9.1) n (%)"},
      {"measurement": "Weight % Change Category <−20%, n (%)", "setting": "[3]; [10]", "value": "2 (0.1) n (%)"},
      {"measurement": "Weight % Change Category >0% to ≦5%, n (%)", "setting": "[3]; [10]", "value": "410 (29.9) n (%)"},
      {"measurement": "Weight % Change Category >5% to ≦10%, n (%)", "setting": "[3]; [10]", "value": "56 (4.1) n (%)"},
      {"measurement": "Weight % Change Category >10% to ≦20%, n (%)", "setting": "[3]; [10]", "value": "18 (1.3) n (%)"},
      {"measurement": "Weight % Change Category >20%, n (%)", "setting": "[3]; [10]", "value": "0 n (%)"},
      {"measurement": "Weight % Change Category ≧−5% to <0%, n (%)", "setting": "[3]; [10]", "value": "565 (41.2) n (%)"},
      {"measurement": "Weight % Change Category ≧−10% to <−5%, n (%)", "setting": "[3]; [10]", "value": "144 (10.5) n (%)"},
      {"measurement": "Weight % Change Category ≧−20% to <−10%, n (%)", "setting": "[3]; [10]", "value": "53 (3.9) n (%)"},
      {"measurement": "observed weight loss of greater than 10%, subjects n (%)", "setting": "[3]; Placebo-controlled Period", "value": "17 (1.9%) n (%)"},
      {"measurement": "percentage of subjects with weight change of >−10% to <−5%", "setting": "[3]; Placebo-controlled Period", "value": 9.3, "unit": "%"},
      {"measurement": "weight decrease reported, subjects n (%)", "setting": "[3]; Placebo-controlled Period (24 weeks)", "value": "8 (0.8%) n (%)"},
      {"measurement": "Weight % Change Category 0%, n (%)", "setting": "[3]; [11]", "value": "101 (11.2) n (%)"},
      {"measurement": "Weight % Change Category <−20%, n (%)", "setting": "[3]; [11]", "value": "1 (0.1) n (%)"}
    ]}
  ]
}
